{"source": "patent US7081474B2", "about": "“Drugs to improve synaptic transmission” (priority 1994, dated 2006)", "origin": "cited, not measured here", "key": {"[1]": {"test_system": "experimental animals", "details": "cited from earlier work"}, "[2]": {"test_system": "slices of rat hippocampus", "details": "cited from earlier work"}, "[3]": {"test_system": "rats", "details": "infused into lateral ventricles; cited from earlier work"}, "[4]": {"test_system": "LTP in hippocampus (CA1 field, dentate gyrus)", "details": "cited from earlier work"}}, "note": "Where two headings read alike, the source gives them in different places. No end group written: not given here."}
{"compound": "N[C@@]1(C(=O)O)CC[C@@H](C(=O)O)C1", "note": "[1S,3R-ACPD, aminocyclopentane-1S,3R-decarboxylate]", "values": [{"measurement": "deleterious effects", "setting": "[1]; administered directly into the brain", "value": "seizures and convulsions"}, {"measurement": "effect on synaptic responses", "setting": "[2]; brief application in vitro", "value": "long lasting potentiation"}]}
{"compound": "NC(CCCP(=O)(O)O)C(=O)O", "note": "(stereo not shown) [APV, 2-amino-5-phosphonopentanoate]", "values": [{"measurement": "learning of the task", "setting": "[3]", "value": "prevented from learning the task"}, {"measurement": "effect on LTP induction", "setting": "[4]; CA1 field and dentate gyrus", "value": "prevent LTP from taking place"}, {"measurement": "effect on LTP already established", "setting": "[4]", "value": "no effect"}]}
{"compound": "O=C(O)CN(CCN(CC(=O)O)CC(=O)O)CC(=O)O", "note": "[EDTA]", "values": [{"measurement": "induction of LTP", "setting": "[4]; intracellular injection", "value": "blocked"}]}
{"compound": "CC(=O)N[C@@H](CC(C)C)C(=O)N[C@@H](CC(C)C)C(=O)N[C@H](C=O)CCCNC(=N)N", "note": "[leupeptin]", "values": [{"measurement": "LTP on electrical stimulation of the hippocampus", "setting": "[4]; infusion into lateral ventricles of rats", "value": "no longer produces LTP"}]}
{"compound": "CC[N+](CC)(CC)CC", "note": "[tetraethylammonium]", "values": [{"measurement": "effect on synaptic responses", "setting": "[2]", "value": "long lasting potentiation"}]}
{"compound": "mast-cell-degranulating peptide: K+ channel blocker (IKCNCKRHVIKPHICRKICGKN; ends and bridges not checked; cysteine pairing not given here; UniProt P01499 28-49, looked up)", "values": [{"measurement": "deleterious effects", "setting": "[1]; in vivo", "value": "seizures and convulsions"}, {"measurement": "effect on synaptic responses", "setting": "[2]", "value": "long lasting potentiation"}]}
